ChEMBL document CHEMBL1156336, “Synthesis, X-ray crystal structure study and antitumoral evaluations of 5,6-disubstituted pyrimidine derivatives” (Bioorg Med Chem, 2010)

Experiments:
[1] = test system: HCT-116; test: Antitumor activity against human HCT116 cells after 72 hrs by MTT assay; conditions: HCT-116, 72 h
[2] = test system: NCI-H460; test: Antitumor activity against human H460 cells after 72 hrs by MTT assay; conditions: NCI-H460, 72 h
[3] = test system: MOLT-4; test: Antitumor activity against human MOLT4 cells after 72 hrs by MTT assay; conditions: MOLT-4, 72 h
[4] = test system: MCF7; test: Antitumor activity against human MCF7 cells after 72 hrs by MTT assay; conditions: MCF7, 72 h
[5] = test system: SW-620; test: Antitumor activity against human SW620 cells after 72 hrs by MTT assay; conditions: SW-620, 72 h
[6] = test system: SW-620; test: Selectivity ratio IC50 of 5-fluorouracil to compound for human SW620 cells; type: functional

| SMILES | IC50 [1] [µM] | IC50 [2] [µM] | IC50 [3] [µM] | IC50 [4] [µM] | IC50 [5] [µM] | Ratio IC50 [6] |
| --- | --- | --- | --- | --- | --- | --- |
| Cc1[nH]c(=O)[nH]c(=O)c1CCCl | > 100 | > 100 | > 100 | > 100 | > 100 | – |
| O=c1[nH]cc(F)c(=O)[nH]1 [FLUOROURACIL] | – | – | 0.03 | – | – | – |
| COc1nc(Cl)nc(C)c1CCOC(C)=O | > 100 | > 100 | > 100 | > 100 | > 100 | – |
| COc1nc(C)c(CCO)c(OC)n1 | > 100 | > 100 | > 100 | > 100 | > 100 | – |
| CC(=O)OCCc1c(C)nc(Cl)nc1Cl | > 100 | > 100 | > 100 | > 100 | > 100 | – |
| COc1nc(C)c(CCOC(C)=O)c(OC)n1 | 40 | 47 | – | 65 | 44 | – |
| COc1nc(C)c2c(n1)OCC2 | > 100 | > 100 | – | > 100 | > 100 | – |
| COc1nc(C)c(CCF)c(OC)n1 | > 100 | > 100 | – | > 100 | > 100 | – |
| Cc1[nH]c(=O)[nH]c(=O)c1CCO | > 100 | > 100 | > 100 | > 100 | > 100 | – |
| Nc1ccn([C@@H]2O[C@H](CO)[C@@H](O)[C@@H]2O)c(=O)n1 [CYTARABINE] | 0.1 | 0.1 | 1 | ≥ 100 | 30 | – |
| COc1nc(CC(O)COCc2ccccc2)c(CCCl)c(OC)n1 (configuration not stated) | 16 | 76 | 19 | 26 | 20 | – |
| CC(=O)OCCc1c(C)[nH]c(=O)[nH]c1=O | > 100 | > 100 | > 100 | > 100 | > 100 | – |
| COc1ccc(C(OCCc2c(C)nc(OC)nc2OC)(c2ccccc2)c2ccccc2)cc1 | 4 | 50 | 5 | 6 | 20 | – |
| COc1nc(Cl)nc(C)c1CCF | > 100 | > 100 | – | > 100 | > 100 | – |
| Cc1nc(Cl)nc(Cl)c1CCCl | 2 | 3 | 5 | 8 | 0.4 | 20 |
| COc1nc(C)c(CCCl)c(OC)n1 | > 100 | > 100 | > 100 | > 100 | > 100 | – |
| COc1nc(Cl)nc(C)c1CCO | > 100 | > 100 | – | > 100 | > 100 | – |
| O=c1[nH]c(CC(O)COCc2ccccc2)c(CCCl)c(=O)[nH]1 (configuration not stated) | > 100 | > 100 | > 100 | > 100 | > 100 | – |
